What was measured:
[1] = target: Mitogen-activated protein kinase 14 (Homo sapiens) (UniProt Q16539); settings: 100 nM
Description: Inhibition of GST-tagged full length human recombinant p38alpha expressed in Escherichia coli using Fluorescein-Poly GT as substrate at 100 nM

[2] = target: Tyrosine-protein kinase Yes (Homo sapiens, UniProt P07947); assay: Inhibition of GST-tagged full length human recombinant YES expressed in baculovirus using Fluorescein-Poly GT as substrate
[3] = tested on: HepG2; assay: Antiproliferative activity against human HepG2 cells after 72 hrs by MTT assay; format: functional, cell-based; settings: HepG2, 72 h
[4] = target: Serine/threonine-protein kinase B-raf (Homo sapiens, UniProt P15056, V600E); assay: Inhibition of full length GST-tagged human recombinant BRAF V600E mutant expressed in baculovirus using Fluorescein-MAP2K1 as substrate
[5] = target: T1, Platelet-derived growth factor receptor alpha (Homo sapiens, UniProt P16234); settings: 100 nM
T1 sequence (P16234 whole entry): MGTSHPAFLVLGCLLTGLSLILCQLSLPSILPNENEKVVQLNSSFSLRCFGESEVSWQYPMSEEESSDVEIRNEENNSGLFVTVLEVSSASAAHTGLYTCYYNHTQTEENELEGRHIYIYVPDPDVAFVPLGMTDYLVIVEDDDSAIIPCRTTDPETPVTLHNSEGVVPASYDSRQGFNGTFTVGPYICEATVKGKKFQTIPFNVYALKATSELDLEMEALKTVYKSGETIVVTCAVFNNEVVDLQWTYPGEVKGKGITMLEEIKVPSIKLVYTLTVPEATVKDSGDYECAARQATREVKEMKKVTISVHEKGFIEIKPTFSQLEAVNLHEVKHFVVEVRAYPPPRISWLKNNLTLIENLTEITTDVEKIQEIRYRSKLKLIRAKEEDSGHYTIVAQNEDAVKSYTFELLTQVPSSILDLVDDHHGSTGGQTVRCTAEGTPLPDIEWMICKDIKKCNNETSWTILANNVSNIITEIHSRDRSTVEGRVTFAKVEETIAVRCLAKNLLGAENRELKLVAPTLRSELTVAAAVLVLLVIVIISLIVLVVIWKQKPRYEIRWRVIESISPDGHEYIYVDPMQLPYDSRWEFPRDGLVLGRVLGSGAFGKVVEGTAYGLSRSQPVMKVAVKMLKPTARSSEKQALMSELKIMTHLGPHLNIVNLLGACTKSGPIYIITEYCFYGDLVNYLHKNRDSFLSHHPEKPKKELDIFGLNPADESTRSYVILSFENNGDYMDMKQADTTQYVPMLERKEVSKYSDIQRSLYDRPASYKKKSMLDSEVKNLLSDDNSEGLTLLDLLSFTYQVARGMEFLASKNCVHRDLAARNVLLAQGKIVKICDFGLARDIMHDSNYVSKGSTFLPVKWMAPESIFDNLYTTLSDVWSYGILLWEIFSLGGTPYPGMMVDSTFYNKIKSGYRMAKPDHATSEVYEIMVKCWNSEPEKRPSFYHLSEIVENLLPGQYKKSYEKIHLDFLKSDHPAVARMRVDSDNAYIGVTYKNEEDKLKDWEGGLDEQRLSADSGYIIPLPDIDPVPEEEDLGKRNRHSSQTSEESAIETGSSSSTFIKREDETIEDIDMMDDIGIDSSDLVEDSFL
Description: Inhibition of GST-tagged human recombinant PDGFRalpha (550 to 1089 residues) expressed in baculovirus using Fluorescein-Poly GT as substrate at 100 nM

[6] = target: Ephrin type-A receptor 4 (Homo sapiens) (UniProt P54764); settings: 100 nM
Description: Inhibition of GST-tagged human recombinant EPHA4 (616 to 887 residues) expressed in baculovirus using Fluorescein-Poly GT as substrate at 100 nM

[7] = target: T2, Tyrosine-protein kinase Fyn (Homo sapiens, UniProt P06241); assay: Inhibition of His-tagged full length human recombinant FYN expressed in baculovirus using Fluorescein-Poly GT as substrate
[8] = target: Receptor tyrosine-protein kinase erbB-4 (Homo sapiens) (UniProt Q15303); settings: 100 nM
Description: Inhibition of GST-tagged human recombinant ERBB4 (708 to 993 residues) expressed in baculovirus using Fluorescein-Poly GT as substrate at 100 nM

[9] = target: Focal adhesion kinase 1 (Homo sapiens) (UniProt Q05397); settings: 100 nM
Description: Inhibition of full length GST-tagged human recombinant FAK expressed in baculovirus using Fluorescein-Poly GT as substrate at 100 nM

[10] = target: T1, Platelet-derived growth factor receptor alpha; assay: Inhibition of full length GST-tagged human recombinant PDGFRalpha expressed in baculovirus using Fluorescein-Poly GT as substrate
[11] = target: Tyrosine-protein kinase ABL1 (Homo sapiens, UniProt P00519, Y253F); assay: Inhibition of His-tagged full length human recombinant ABL Y253F mutant expressed in baculovirus using Fluorescein-Poly GT as substrate
[12] = target: Serine/threonine-protein kinase PAK 2 (Homo sapiens) (UniProt Q13177); settings: 100 nM
Description: Inhibition of GST-tagged full length human recombinant PAK2 expressed in baculovirus at 100 nM

[13] = target: Protein kinase C alpha type (Homo sapiens) (UniProt P17252); settings: 100 nM
Description: Inhibition of full length human recombinant PKCalpha expressed in baculovirus using Fluorescein-PKC as substrate at 100 nM

[14] = target: Vascular endothelial growth factor receptor 3 (Homo sapiens) (UniProt P35916); settings: 100 nM
Chain of Vascular endothelial growth factor receptor 3 (Homo sapiens) (P35916 whole entry): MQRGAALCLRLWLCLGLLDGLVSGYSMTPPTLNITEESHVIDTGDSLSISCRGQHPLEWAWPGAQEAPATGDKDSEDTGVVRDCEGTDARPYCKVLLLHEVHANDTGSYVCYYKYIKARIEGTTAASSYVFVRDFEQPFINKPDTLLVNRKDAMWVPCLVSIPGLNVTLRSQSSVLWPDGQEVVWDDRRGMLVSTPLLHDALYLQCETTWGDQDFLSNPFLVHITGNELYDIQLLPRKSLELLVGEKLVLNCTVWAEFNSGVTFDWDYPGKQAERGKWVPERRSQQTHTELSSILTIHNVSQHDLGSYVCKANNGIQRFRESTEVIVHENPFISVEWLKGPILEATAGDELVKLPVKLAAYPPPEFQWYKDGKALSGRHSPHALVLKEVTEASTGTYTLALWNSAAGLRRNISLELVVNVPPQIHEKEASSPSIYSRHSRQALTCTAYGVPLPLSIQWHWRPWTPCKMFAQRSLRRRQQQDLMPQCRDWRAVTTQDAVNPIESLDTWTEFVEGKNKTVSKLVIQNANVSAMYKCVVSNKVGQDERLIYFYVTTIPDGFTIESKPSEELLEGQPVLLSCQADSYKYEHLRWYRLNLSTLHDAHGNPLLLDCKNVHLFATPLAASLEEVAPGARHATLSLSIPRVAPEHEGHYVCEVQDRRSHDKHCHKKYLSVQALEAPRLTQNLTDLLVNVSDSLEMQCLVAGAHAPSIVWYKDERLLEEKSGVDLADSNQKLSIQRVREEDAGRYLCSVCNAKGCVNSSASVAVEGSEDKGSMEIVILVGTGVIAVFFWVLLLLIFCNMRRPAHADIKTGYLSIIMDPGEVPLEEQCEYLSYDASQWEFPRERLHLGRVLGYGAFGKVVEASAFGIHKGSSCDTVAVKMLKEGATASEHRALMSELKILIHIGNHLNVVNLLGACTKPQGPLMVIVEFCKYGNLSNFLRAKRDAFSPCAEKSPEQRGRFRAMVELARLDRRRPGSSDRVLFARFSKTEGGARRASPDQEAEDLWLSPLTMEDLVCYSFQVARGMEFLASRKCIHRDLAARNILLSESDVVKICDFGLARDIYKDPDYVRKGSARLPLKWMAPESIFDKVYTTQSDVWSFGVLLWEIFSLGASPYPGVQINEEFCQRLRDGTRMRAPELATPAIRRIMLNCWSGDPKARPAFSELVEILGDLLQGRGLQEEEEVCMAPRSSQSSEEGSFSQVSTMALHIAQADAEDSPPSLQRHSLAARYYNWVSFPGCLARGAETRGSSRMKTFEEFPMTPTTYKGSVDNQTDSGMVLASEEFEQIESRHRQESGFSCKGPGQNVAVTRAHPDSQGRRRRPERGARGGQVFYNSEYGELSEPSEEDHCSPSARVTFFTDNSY
Description: Inhibition of GST-tagged human recombinant VEGFR3 (800 to 1297 residues) expressed in baculovirus using Fluorescein-Poly GT as substrate at 100 nM

[15] = target: AMP-activated protein kinase, AMPK (Homo sapiens) (UniProt P54646+O43741+P54619+Q9UGJ0+Q9Y478+Q13131+Q9UGI9); settings: 100 nM
Description: Inhibition of full length human recombinant AMPK expressed in baculovirus expression system using Fluorescein-CREBtide as substrate at 100 nM

[16] = target: Tyrosine-protein kinase Fer (Homo sapiens) (UniProt P16591); settings: 100 nM
Chain of Tyrosine-protein kinase Fer (Homo sapiens) (P16591 whole entry, looked up): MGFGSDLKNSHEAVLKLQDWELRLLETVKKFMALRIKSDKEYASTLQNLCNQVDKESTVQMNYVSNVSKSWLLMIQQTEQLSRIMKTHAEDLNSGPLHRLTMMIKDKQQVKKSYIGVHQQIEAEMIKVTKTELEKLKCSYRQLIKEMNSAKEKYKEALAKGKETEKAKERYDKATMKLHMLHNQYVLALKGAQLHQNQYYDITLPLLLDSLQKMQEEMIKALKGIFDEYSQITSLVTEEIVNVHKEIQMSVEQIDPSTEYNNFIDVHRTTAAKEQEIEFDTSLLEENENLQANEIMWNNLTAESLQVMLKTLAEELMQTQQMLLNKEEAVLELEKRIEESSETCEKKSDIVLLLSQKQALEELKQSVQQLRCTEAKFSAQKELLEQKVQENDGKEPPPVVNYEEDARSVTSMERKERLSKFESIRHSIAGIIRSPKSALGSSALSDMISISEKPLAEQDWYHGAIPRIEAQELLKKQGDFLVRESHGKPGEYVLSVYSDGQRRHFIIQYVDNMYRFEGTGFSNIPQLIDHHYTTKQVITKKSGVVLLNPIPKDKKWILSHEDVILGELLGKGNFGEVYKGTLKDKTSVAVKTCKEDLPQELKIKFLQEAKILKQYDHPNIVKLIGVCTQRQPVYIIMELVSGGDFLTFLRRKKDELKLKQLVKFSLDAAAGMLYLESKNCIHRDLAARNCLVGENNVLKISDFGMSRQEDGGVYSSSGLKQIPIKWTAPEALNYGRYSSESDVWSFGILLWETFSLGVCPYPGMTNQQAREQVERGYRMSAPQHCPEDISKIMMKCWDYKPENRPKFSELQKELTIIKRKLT
Description: Inhibition of His-tagged human recombinant FER (541 to 822 residues) expressed in baculovirus using Fluorescein-Poly GT as substrate at 100 nM

[17] = target: Angiopoietin-1 receptor (Homo sapiens) (UniProt Q02763); settings: 100 nM
Description: Inhibition of GST-tagged human recombinant TIE2 (817 to 1101 residues) expressed in baculovirus using Fluorescein-Poly GT as substrate at 100 nM

[18] = tested on: A549; assay: Antiproliferative activity against human A549 cells after 72 hrs by MTT assay; format: functional, cell-based; settings: A549, 72 h
[19] = target: Tyrosine-protein kinase ZAP-70 (Homo sapiens) (UniProt P43403); settings: 100 nM
Description: Inhibition of His-tagged full length human recombinant ZAP70 expressed in baculovirus using Fluorescein-Poly GT as substrate at 100 nM

[20] = target: Serine/threonine-protein kinase PLK1 (Homo sapiens) (UniProt P53350); settings: 100 nM
Description: Inhibition of His-tagged full length human recombinant PLK1 expressed in baculovirus using at 100 nM

[21] = target: Serine/threonine-protein kinase Nek2 (Homo sapiens) (UniProt P51955); settings: 100 nM
Chain of Serine/threonine-protein kinase Nek2 (Homo sapiens) (P51955 whole entry): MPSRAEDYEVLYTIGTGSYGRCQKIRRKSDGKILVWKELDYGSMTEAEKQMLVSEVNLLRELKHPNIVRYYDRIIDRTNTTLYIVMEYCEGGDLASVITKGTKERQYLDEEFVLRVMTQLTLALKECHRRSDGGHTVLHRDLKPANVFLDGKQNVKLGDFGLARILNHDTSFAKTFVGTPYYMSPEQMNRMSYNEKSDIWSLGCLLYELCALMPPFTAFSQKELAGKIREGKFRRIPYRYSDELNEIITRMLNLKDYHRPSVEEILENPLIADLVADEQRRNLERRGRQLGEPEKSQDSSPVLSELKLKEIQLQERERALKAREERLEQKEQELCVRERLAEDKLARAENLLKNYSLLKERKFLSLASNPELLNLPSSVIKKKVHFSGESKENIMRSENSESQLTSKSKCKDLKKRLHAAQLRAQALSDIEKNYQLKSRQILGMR
Description: Inhibition of HIS-tagged full length human recombinant NEK2 expressed in baculovirus using Fluorescein-PKC as substrate at 100 nM

[22] = target: Tyrosine-protein kinase Mer (Homo sapiens) (UniProt Q12866); settings: 100 nM
Description: Inhibition of GST-tagged human recombinant cMER expressed in baculovirus using Fluorescein-Poly GT as substrate at 100 nM

[23] = target: Tyrosine-protein kinase Fgr (Homo sapiens) (UniProt P09769); assay: Inhibition of His-tagged full length human recombinant FGR expressed in baculovirus using Fluorescein-Poly GT as substrate at 100 nM
[24] = target: Epidermal growth factor receptor (Homo sapiens, UniProt P00533); assay: Inhibition of GST-tagged human recombinant EGFR (668 to1210 residues) expressed in baculovirus using Fluorescein-Poly GT as substrate at 100 nM
[25] = target: Macrophage-stimulating protein receptor (Homo sapiens) (UniProt Q04912); settings: 100 nM
Description: Inhibition of GST-tagged human recombinant MST1R (983 to 1400 residues) expressed in baculovirus using Fluorescein-Poly GT as substrate at 100 nM

[26] = target: Mitogen-activated protein kinase 1 (Homo sapiens) (UniProt P28482); settings: 100 nM
Description: Inhibition of GST-tagged full length human recombinant ERK2 expressed in Escherichia coli using GFP-AT F2 as substrate at 100 nM

[27] = target: Cyclin-dependent kinase 1/cyclin B1 (Homo sapiens) (UniProt P06493+P14635); settings: 100 nM
Description: Inhibition of CDK1/cyclinB (unknown origin) at 100 nM

[28] = target: Epidermal growth factor receptor (Homo sapiens, UniProt P00533, T790M); assay: Inhibition of GST-tagged human recombinant EGFR T790M mutant (668 to 1210 residues) expressed in baculovirus using Fluorescein-Poly GT as substrate
Chain of Epidermal growth factor receptor (Homo sapiens, UniProt P00533, T790M) (P00533 25-1210 T790M limits assumed): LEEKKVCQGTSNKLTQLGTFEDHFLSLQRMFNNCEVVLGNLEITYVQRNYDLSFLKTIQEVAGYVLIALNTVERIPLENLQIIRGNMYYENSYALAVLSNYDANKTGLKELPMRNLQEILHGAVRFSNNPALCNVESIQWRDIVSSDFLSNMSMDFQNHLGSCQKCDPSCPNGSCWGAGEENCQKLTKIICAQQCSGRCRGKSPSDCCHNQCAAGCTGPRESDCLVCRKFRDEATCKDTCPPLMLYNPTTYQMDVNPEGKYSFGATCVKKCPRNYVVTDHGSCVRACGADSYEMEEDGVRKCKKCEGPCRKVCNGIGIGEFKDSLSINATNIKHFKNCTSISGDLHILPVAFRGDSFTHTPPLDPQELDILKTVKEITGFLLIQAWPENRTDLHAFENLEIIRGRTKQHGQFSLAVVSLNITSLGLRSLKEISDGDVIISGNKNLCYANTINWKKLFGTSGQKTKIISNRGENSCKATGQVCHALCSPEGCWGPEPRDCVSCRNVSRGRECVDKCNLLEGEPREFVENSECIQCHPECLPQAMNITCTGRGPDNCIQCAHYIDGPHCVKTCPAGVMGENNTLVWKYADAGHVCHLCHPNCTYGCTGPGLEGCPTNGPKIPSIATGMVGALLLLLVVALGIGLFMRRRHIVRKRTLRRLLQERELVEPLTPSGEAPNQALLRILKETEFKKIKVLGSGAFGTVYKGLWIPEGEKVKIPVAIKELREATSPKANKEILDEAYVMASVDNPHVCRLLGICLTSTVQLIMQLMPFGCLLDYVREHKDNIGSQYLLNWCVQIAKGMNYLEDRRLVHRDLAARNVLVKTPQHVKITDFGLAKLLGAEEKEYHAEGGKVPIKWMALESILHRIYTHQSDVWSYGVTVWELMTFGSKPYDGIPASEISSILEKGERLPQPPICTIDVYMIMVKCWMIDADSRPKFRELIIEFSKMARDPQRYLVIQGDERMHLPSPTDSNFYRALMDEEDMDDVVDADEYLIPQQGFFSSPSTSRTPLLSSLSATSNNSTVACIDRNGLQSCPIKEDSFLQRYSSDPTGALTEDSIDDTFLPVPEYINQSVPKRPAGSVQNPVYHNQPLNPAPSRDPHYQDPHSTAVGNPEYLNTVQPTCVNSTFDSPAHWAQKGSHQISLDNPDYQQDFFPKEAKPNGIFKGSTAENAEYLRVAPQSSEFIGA

[29] = target: Proto-oncogene tyrosine-protein kinase Src (Homo sapiens, UniProt P12931); assay: Inhibition of full length His-tagged human recombinant cSRC expressed in baculovirus using Fluorescein-Poly GT as substrate
[30] = target: T2, Tyrosine-protein kinase Fyn; settings: 100 nM
Description: Inhibition of His-tagged full length human recombinant FYN expressed in baculovirus using Fluorescein-Poly GT as substrate at 100 nM

[31] = target: Serine/threonine-protein kinase pim-1 (Homo sapiens) (UniProt P11309); settings: 100 nM
Description: Inhibition of His-tagged full length human recombinant PIM1 expressed in baculovirus using Fluorescein-CREBtide as substrate at 100 nM

[32] = target: Inhibitor of nuclear factor kappa-B kinase subunit beta (Homo sapiens) (UniProt O14920); settings: 100 nM
Description: Inhibition of GST-tagged full length human recombinant IKKbeta expressed in baculovirus using Fluorescein-Poly GT as substrate at 100 nM

[33] = Antiproliferative activity against human BxPC3 cells after 72 hrs by MTT assay; format: functional, cell-based; settings: BXPC-3, 72 h
[34] = target: Tyrosine-protein kinase HCK (Homo sapiens, UniProt P08631); assay: Inhibition of GST-tagged full length human recombinant HCK expressed in baculovirus using Fluorescein-Poly GT as substrate
[35] = target: Protein kinase C epsilon type (Homo sapiens) (UniProt Q02156); settings: 100 nM
Description: Inhibition of full length human recombinant PKCepsilon expressed in baculovirus using Fluorescein-PKC as substrate at 100 nM

[36] = tested on: Epidermal growth factor receptor (Homo sapiens), P00533 [T790M]; settings: 100 nM
[37] = target: Myotonin-protein kinase (Homo sapiens) (UniProt Q09013); settings: 100 nM
Description: Inhibition of full length GST-tagged human recombinant DMPK expressed in baculovirus expression system at 100 nM

[38] = target: Rho-associated protein kinase 2 (Homo sapiens) (UniProt O75116); settings: 100 nM
Description: Inhibition of GST-tagged human recombinant ROCK2 ( 1 to 552 residues) expressed in baculovirus using Fluorescein-PKC as substrate at 100 nM

[39] = Antiproliferative activity against human Caki2 cells after 72 hrs by MTT assay; format: functional, cell-based; settings: CAKI-2, 72 h
[40] = tested on: Tyrosine-protein kinase ABL1 (Homo sapiens), P00519 [T315I]; settings: 100 nM
Description: Inhibition of His-tagged full length human recombinant ABL1 T315I mutant expressed in baculovirus using Fluorescein-Poly GT as substrate at 100 nM

[41] = target: Vascular endothelial growth factor receptor 1 (Homo sapiens) (UniProt P17948); settings: 100 nM
Description: Inhibition of GST-tagged human recombinant VEGFR1 (781 to 1338 residues) expressed in baculovirus using Fluorescein-Poly GT as substrate at 100 nM

[42] = target: Insulin-like growth factor 1 receptor (Homo sapiens) (UniProt P08069); settings: 100 nM
Description: Inhibition of His-tagged human recombinant IGF1R (960 to 1397 residues) expressed in baculovirus using Fluorescein-Poly GT as substrate at 100 nM

COC(=O)c1cc2cc(NCc3cc(NC(=O)c4cc(-n5cnc(C)c5)cc(C(F)(F)F)c4)ccc3C)cnc2[nH]1
inhibition [1]: < 40% | IC50 [2]: 44 nM | EC50 [3]: 38 nM | IC50 [4]: 10 nM | inhibition [5]: < 40% | inhibition [6]: < 40% | IC50 [7]: 131 nM | inhibition [8]: < 40% | inhibition [9]: < 40% | IC50 [10]: 50 nM | IC50 [11]: 51 nM | inhibition [12]: < 40% | inhibition [13]: < 40% | inhibition [14]: < 40% | inhibition [15]: < 40% | inhibition [16]: < 40% | inhibition [17]: < 40% | EC50 [18]: 64 nM | inhibition [19]: < 40% | inhibition [20]: < 40% | inhibition [21]: < 40% | inhibition [22]: < 40% | inhibition [23]: > 80% | inhibition [24]: 82% | inhibition [25]: < 40% | inhibition [26]: < 40% | inhibition [27]: < 40% | IC50 [28]: 112 nM | IC50 [29]: 40 nM | inhibition [30]: < 40% | inhibition [31]: < 40% | inhibition [32]: < 40% | EC50 [33]: 35 nM | IC50 [34]: 22 nM | inhibition [35]: < 40% | inhibition [36]: < 40% | inhibition [37]: < 40% | inhibition [38]: < 40% | EC50 [39]: 22 nM | inhibition [40]: < 40% | inhibition [41]: < 40% | inhibition [42]: < 40%
